Data as given in ChEMBL document CHEMBL4371082.
Activity calls are given as the source filed them.

Assays:
[1] = Antioxidant activity assessed as ABTS radical scavenging activity at 20 uM measured at 30 sec interval over 60 mins; type: functional
[2] = Antioxidant activity assessed as DPPH free radical scavenging activity at 20 uM; type: functional
Saccharomyces cerevisiae [3] = test: Protection against copy of c-myc-tagged human bax gene induced oxidative stress in yeast BC300 assessed as reactive oxygen species level in SG liquid medium by dihydroethidium dye based fluorescence assay; type: functional, organism-based
Saccharomyces cerevisiae [4] = test: Protection against copy of c-myc-tagged human bax gene induced mitochondrial dysfunction in yeast BC300 assessed as prevention of mitochondrial membrane potential loss in SG liquid medium by JC-10 dye based fluorescence assay; type: functional, organism-based
Saccharomyces cerevisiae [5] = test: Protection against 3-copies of HA-tagged human alpha-syn gene induced oxidative stress in yeast BC300 assessed as reduction in reactive oxygen species level in SG solid agar medium by dihydroethidium dye based fluorescence assay; type: functional, organism-based
Saccharomyces cerevisiae [6] = test: Protection against 3-copies of HA-tagged human alpha-syn gene induced mitochondrial dysfunction in yeast BC300 assessed as prevention of mitochondrial membrane potential loss in SG solid agar medium by JC-10 dye based fluorescence assay; type: functional, organism-based

Measured: Activity

O=C1O[C@H]([C@@H](O)CO)C(O)=C1O
active: [1] | [2]

COc1ccc([C@@H](O)CNC(=O)/C=C/c2ccccc2)cc1
active: all assays above
